Measured values reported in US20110052740A1, “Skin Circulation-Improving Agent And Skin Temperature-Elevating Agent” (SHISEIDO COMPANY, LTD., priority 2008, published 2011).

What was measured:
[1] = Study of effect on skin temperature (smelling of test substance, body temperature logger); format: in vivo, human; settings: for skin temperatures of the fingers: one person, vapor inhaled 3 min from impregnated cotton piece under the nose, 25° C., humidity 50%, FIG. 1; for skin temperatures of the cheeks / skin temperatures of the toes: smell taken with the nose, not illustrated by data
Protocol: The skin temperature of fingers was measured by use of 8ch Body Temperature Logger (supplied by Nikkiso-Therm Co., Ltd.), and a change in skin temperature due to smelling of a test substance was investigated. The effect on the peripheral skin temperature was thus studied. A solvent extract of a common jasmine (Jasminum officinale) belonging to the Jasminum genus in the Oleaceae family was used as a control, and the evaluation was made in the same manner.
A person was employed as a subject, and the test was made in a constant temperature and humidity room at a temperature of 25° C. and a humidity of 50%.
The subject was seated on an easy chair and allowed to take a rest for 30 minutes. […] The change in peripheral skin temperature was evaluated by use of a value (T value) obtained by subtracting a mean value of the skin temperatures at the two sites of the chest from the mean value of the skin temperatures at the two fingertip sites.
One sequence of measurement tests was composed of (A) a rest for three minutes, (B) attaching of an odorless cotton piece under the nose for three minutes, (C) a rest for three minutes, (D) attaching of a test sample-impregnated cotton piece under the nose for three minutes, (E) a rest for three minutes, (F) attaching of an odorless cotton piece under the nose for three minutes, and (G) a rest for three minutes. The skin temperature was measured successively during the one sequence, and the T values were calculated.
The T values obtained at the times of (B) and (F), at each of which the odorless cotton piece was attached, were taken as the controls and were compared with the T value obtained at the time of (D), at which the vapor of the test sample was inhaled. The effect of each substance on the skin temperature was thus investigated. Specifically, the formula shown below was utilized.
Skin temperature change (° C.)=T value (D)−(mean value of T value (B) and T value (F))

[2] = Study of effect on skin blood circulation (laser Doppler flow-meter, smelling of test sample); format: in vivo, human; settings: general statement of the inventors' findings; no data shown for substances other than the Arabian jasmine extract
Protocol: The skin blood circulation rate of fingers was measured by use of the laser Doppler flow-meter (ADVANCE LASER FLOW-METER ALF21), and the effect of the Arabian jasmine extract on the skin blood circulation was evaluated.
Six persons (men and women) were employed as subjects, and the test was made in a constant temperature and humidity room having been adjusted at a temperature of 22° C. and a humidity of 45%. Each of the subjects was seated on an easy chair and allowed to take a rest for 30 minutes. Thereafter, a probe of the flow-meter was fitted to the inner surface side of the third finger of the right hand of the subject, and a change in blood circulation rate with the passage of time was recorded. One sequence of measurement tests was composed of (A) a rest for three minutes, (B) attaching of an odorless cotton piece under the nose for three minutes, (C) a rest for three minutes, (D) attaching of a test sample-impregnated cotton piece under the nose for three minutes, (E) a rest for three minutes, (F) attaching of an odorless cotton piece under the nose for three minutes, and (G) a rest for three minutes. The blood circulation rate was measured successively during the one sequence. […]

[3] = system: sympathetic nerve; assay: Sympathetic nerve suppressing effect (confirmed by the inventors, no method given); settings: statement without data

Structure (SMILES)	skin temperatures of the fingers [1]	skin temperatures of the cheeks [1]	skin temperatures of the toes [1]	rate of the skin blood circulation (summary of findings) [2]	sympathetic nerve suppressing effect [3]
CC(=O)OC1CC2CCC1(C)C2(C)C (stereo not shown) [bornyl acetate]	increased	could be increased	could be increased	increases	has a sympathetic nerve suppressing effect
CCCCC1OC(=O)CC1C (stereo not shown) [3-methyloctano-4-lactone]	increased	could be increased	could be increased	increases	has a sympathetic nerve suppressing effect
